For assay [1], the system named is Mus musculus. Kind of assay: Compound was tested for antidiabetic activity by measuring percentage reduction in plasma glucose at a dose of 30 mg/kg; NE=No effect. Also noted: dose 30 mg/kg. It counts as functional, organism-based.
Assay [2] has as its system Mus musculus. Kind of assay: Compound was tested for antidiabetic activity by measuring percentage reduction in triglycerides at a dose of 30 mg/kg. It is filed as functional.
Assay [3] has as its system Rattus norvegicus. Kind of assay: Compound was tested for antiinflammatory activity by measuring percentage reduction in inflammation at a dose of 100 mg/kg in rats; NE=No effect. More on the design: dose 100 mg/kg. It counts as functional, organism-based.
For assay [4], the system named is Mus musculus. Kind of assay: Compound was tested for antidiabetic activity by measuring percentage reduction in plasma glucose at a dose of 30 mg/kg. It counts as functional.
The subject of assay [5] is Mus musculus. Kind of assay: Compound was tested for antidiabetic activity by measuring percentage reduction in triglycerides at a dose of 30 mg/kg; NE=No effect. Also noted: dose 30 mg/kg. It counts as functional, organism-based.
Assay [6] relates to Rattus norvegicus. Kind of assay: Compound was tested for antiinflammatory activity by measuring percentage reduction in inflammation at a dose of 100 mg/kg in rats. It is filed as functional.

SMILES strings stand for the structures. The source made the active and inactive calls. The rule behind the calls is not given here.

Twelve compounds from ChEMBL document CHEMBL1130604, “Synthesis and biological activity of novel thiazolidinediones” (1998) can be followed below.

Take `C/C(=C1/SC(=O)NC1=O)c1cccs1`: the Reduction result in the assay with Mus musculus [1] and with Rattus norvegicus [3] was “inactive” each time. In the assay with Mus musculus [2], the Reduction was determined as 18%.
Take `COc1ccc2cc(/C(C)=C3/SC(=O)NC3=O)ccc2c1`: the Reduction was 26% in the assay with Mus musculus [4] and 7% with Rattus norvegicus [6]. In addition, the Reduction entry with Mus musculus [5] is “inactive”.
On to `C/C(CCc1ccc2cc(OCC3(C)CCc4c(C)c(O)c(C)c(C)c4O3)ccc2c1)=C1/SC(=O)NC1=O` (stereo unspecified), for which the Reduction entry in the assay with Mus musculus [1] and with Mus musculus [5] was “inactive” throughout. The Reduction with Rattus norvegicus [6] is 12%.
As for `COc1ccc2cc(/C(CC(C)=O)=C3\SC(=O)NC3=O)ccc2c1`, the Reduction was determined as 16% in the assay with Mus musculus [4] and 25% in the assay on Rattus norvegicus [6]. Besides, in the assay with Mus musculus [5], the Reduction entry is “inactive”.
For `O=C1NC(=O)C(Cc2ccc3cc(OCc4ccccc4F)ccc3c2)S1` (stereo unspecified) [NETOGLITAZONE], the Reduction in the assay on Mus musculus [4] amounted to 60%; in the assay with Mus musculus [2] it was 72%; in the assay on Rattus norvegicus [6], 18%.
In the case of `C/C(=C1\SC(=O)NC1=O)c1ccco1`, the Reduction in the assay with Mus musculus [4] is listed as 16%; in the assay with Rattus norvegicus [6] it was 12%. Also, the Reduction result in the assay on Mus musculus [5] was “inactive”.
Take `COc1ccc2cc(CC/C(C)=C3/SC(=O)NC3=O)ccc2c1`: the Reduction with Mus musculus [4] stood at 16%; with Mus musculus [2], 50%; in the assay with Rattus norvegicus [6], 10%.
Consider `COc1ccc2cc(/C(CC(C)=O)=C3/SC(=O)NC3=O)ccc2c1`, for which the Reduction entry in the assay with Mus musculus [1] and in the assay with Mus musculus [5] was “inactive” throughout. This compound also came in with a Reduction in the assay on Rattus norvegicus [6] of 7%.
As for `COc1ccc2cc(CCC(C)C3SC(=O)NC3=O)ccc2c1` (stereo unspecified), the figures for the Reduction with Mus musculus [4], in the assay on Mus musculus [2] and in the assay with Rattus norvegicus [6] were 8%, 44% and 17%, respectively.
In turn, `C/C(CCc1ccc2cc(O)ccc2c1)=C1\SC(=O)NC1=O` yielded a Reduction in the assay with Mus musculus [4] of 20%. In addition, the Reduction result in the assay on Mus musculus [5] and in the assay with Rattus norvegicus [3] was “inactive” throughout.
As for `COc1ccc2cc(CCC(C)=O)ccc2c1` [NABUMETONE], the Reduction entry with Mus musculus [1] and with Mus musculus [5] was “inactive” throughout. In the assay with Rattus norvegicus [6], this compound returned a Reduction of 30%.
Consider `Cc1c(C)c2c(c(C)c1O)CCC(C)(COc1ccc(CC3SC(=O)NC3=O)cc1)O2` (stereo unspecified) [TROGLITAZONE], for which the Reduction in the assay with Mus musculus [4] was 16%; in the assay on Mus musculus [2] it was 50%; with Rattus norvegicus [6], 3%.
